From patent US20070021415A1, “Pharmaceutical composition for the prevention or treatment of cerebral oedemas” (priority 2005, published 2007)
Where two headings read alike, the source gives them in different places.

Key:
[1] = rat, in vivo; for weight gain (in words): po, 50 mg/kg/day
[2] = test system: cerebral oedema induced by triethyl tin (TET) in the rat; details: in vivo
[3] = test system: cerebral oedema induced by triethyl tin (TET) chloride in the rat; details: administered during the intoxication with tin, measured after 5 days (Linee et al., 1984); cited from earlier work

Compound	weight gain (in words) [1]	weight of the dried brain ([2]; po)	Variation in percentage ([2]; po, 50 mg/kg/day)	activity in the preventive protocol [3]	also measured
CCNC1=Nc2ccc(Cl)cc2C(C)(c2ccccc2)O1.Cl (stereo not drawn) [etifoxine, 6-chloro-2-ethylamino-4-methyl-4-phenyl-4H-[3,1]benzoxazine hydrochloride]	does not disrupt weight gain	do not modify this parameter significantly	−0.30%	–	Body weight in grams (mean ± s.e.m.) [1]: 251 ± 4 grams; Variation in percentage ([2]; po, 100 mg/kg/day): −0.07%
CC[C@]12CCCN3CCc4c(n(c5ccccc45)[C@@](O)(C(=O)OC)C1)[C@@H]32 [vincamine]	–	–	–	active	–
(−)eburnamonine	–	–	–	active	–
dihydroergotoxin	–	–	–	active	–
CC1(c2ccccc2)OC(N)=Nc2ccc(Cl)cc21 (stereo not drawn) [desethyl-etifoxine, 2-amino-6-chloro-4-methyl-4-phenyl-4H-[3,1]benzoxazine]	does not disrupt the weight gain	do not modify this parameter significantly	−0.09%	–	Variation in percentage [2]: +0.39%
